Experiments:
[1] = biological target: 5-hydroxytryptamine receptor 6 (Homo sapiens, UniProt P50406); format: cell membranes, HeLa, Membrane; conditions: hela; note: in other assays of this panel Not Active means under 50% inhibition at 10 µM
[2] = biological target: T1, Endothelin-1 receptor (Homo sapiens, UniProt P25101); format: cell membranes, Membrane; conditions: cho-k1; note: in other assays of this panel Not Active means under 50% inhibition at 10 µM
T1 sequence (P25101 whole entry): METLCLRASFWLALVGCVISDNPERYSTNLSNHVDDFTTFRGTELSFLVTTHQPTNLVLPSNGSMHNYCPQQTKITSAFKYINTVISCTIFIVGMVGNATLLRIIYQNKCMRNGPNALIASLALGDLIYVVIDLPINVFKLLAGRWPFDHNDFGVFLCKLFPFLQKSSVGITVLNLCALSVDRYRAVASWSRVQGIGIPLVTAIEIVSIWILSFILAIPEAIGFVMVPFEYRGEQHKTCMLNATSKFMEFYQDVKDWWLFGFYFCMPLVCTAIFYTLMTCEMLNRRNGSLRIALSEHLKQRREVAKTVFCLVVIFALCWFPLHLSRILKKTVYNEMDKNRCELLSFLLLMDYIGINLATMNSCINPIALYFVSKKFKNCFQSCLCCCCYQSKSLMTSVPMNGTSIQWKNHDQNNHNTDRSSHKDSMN

[3] = DRUGMATRIX: Glutamate, Kainate radioligand binding (ligand: [3H] Kainic acid); format: cell membranes, Rattus norvegicus, Wistar, Brain, Membrane; conditions: Not Active = under 50% inhibition at 10 µM
[4] = DRUGMATRIX: Glutamate, NMDA, Phencyclidine radioligand binding (ligand: [3H] TCP); format: cell membranes, Rattus norvegicus, Wistar, Cerebral cortex, Membrane; conditions: Not Active = under 50% inhibition at 10 µM
[5] = biological target: T2, Polyunsaturated fatty acid lipoxygenase ALOX15 (Oryctolagus cuniculus, UniProt P12530); test: biochemical; format: tissue-based, Reticulocytes;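 note: inhibition of 15-lipoxygenase enzyme activity measured with linoleic acid as the substrate; in other assays of this panel Not Active means under 50% inhibition at 10 µM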
T2 sequence (P12530 whole entry): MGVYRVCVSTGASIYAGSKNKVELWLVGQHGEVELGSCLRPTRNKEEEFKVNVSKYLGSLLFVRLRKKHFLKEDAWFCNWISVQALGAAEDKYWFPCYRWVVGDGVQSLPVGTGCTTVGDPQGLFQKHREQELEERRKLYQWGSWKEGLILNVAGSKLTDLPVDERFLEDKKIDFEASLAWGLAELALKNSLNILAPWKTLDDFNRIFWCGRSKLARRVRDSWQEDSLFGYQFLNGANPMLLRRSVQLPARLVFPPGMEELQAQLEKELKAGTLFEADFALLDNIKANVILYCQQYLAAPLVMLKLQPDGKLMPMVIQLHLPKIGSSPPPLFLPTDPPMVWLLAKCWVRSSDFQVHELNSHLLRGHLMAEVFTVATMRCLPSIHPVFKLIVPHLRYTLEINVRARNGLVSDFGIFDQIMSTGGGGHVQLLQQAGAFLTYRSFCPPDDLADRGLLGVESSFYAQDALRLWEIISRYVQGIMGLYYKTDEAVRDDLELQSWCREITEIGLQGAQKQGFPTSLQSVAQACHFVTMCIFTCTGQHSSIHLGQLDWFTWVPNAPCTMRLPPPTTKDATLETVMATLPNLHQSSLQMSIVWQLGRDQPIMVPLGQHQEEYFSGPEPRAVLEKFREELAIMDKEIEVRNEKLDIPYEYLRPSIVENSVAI

[6] = biological target: Platelet-activating factor receptor (Homo sapiens, UniProt P25105); format: tissue-based; note: in other assays of this panel Not Active means under 50% inhibition at 10 µM
[7] = biological target: Voltage-gated inwardly rectifying potassium channel KCNH2 (Homo sapiens, UniProt Q12809); conditions: hek293; note: in other assays of this panel Not Active means under 50% inhibition at 10 µM
Chain of Voltage-gated inwardly rectifying potassium channel KCNH2 (Q12809 whole entry): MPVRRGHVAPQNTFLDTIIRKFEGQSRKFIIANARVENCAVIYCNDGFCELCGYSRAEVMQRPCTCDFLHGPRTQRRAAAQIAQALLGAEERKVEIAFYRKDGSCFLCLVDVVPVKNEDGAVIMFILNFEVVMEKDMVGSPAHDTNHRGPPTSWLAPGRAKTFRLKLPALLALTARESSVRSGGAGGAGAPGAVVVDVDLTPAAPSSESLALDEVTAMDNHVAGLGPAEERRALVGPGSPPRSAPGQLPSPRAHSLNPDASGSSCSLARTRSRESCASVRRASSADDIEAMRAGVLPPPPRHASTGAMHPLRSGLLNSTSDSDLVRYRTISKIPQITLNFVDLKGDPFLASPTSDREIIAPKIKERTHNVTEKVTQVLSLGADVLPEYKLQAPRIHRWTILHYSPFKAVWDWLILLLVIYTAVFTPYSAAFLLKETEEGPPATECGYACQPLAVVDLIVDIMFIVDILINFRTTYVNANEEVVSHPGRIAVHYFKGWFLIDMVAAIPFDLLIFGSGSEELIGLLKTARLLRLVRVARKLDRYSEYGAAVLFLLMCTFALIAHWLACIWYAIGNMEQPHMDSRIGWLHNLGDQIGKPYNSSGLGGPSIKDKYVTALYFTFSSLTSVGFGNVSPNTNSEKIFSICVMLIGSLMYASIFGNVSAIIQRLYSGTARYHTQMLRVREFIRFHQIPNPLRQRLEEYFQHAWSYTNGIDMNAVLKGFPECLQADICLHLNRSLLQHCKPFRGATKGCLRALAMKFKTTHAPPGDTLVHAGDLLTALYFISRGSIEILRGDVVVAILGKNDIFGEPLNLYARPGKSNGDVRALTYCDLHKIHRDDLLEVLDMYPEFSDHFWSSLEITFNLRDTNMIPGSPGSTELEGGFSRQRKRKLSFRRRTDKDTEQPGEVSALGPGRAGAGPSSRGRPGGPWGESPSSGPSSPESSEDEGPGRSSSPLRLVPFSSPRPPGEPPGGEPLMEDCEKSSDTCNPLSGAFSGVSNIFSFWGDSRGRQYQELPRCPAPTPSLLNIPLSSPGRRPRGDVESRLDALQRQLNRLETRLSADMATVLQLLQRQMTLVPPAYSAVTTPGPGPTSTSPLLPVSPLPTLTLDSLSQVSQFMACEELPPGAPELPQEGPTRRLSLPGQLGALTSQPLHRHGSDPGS

Chain of Platelet-activating factor receptor (P25105 whole entry): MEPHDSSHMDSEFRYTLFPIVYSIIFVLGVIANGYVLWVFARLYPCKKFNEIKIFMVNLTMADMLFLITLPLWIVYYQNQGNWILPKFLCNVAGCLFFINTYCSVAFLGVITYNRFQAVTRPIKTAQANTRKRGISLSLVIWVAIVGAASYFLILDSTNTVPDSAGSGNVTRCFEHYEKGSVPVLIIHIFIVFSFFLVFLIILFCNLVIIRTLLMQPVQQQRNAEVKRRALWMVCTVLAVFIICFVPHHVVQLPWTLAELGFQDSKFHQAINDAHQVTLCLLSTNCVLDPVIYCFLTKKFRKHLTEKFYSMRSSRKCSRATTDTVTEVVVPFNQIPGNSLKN
Chain of 5-hydroxytryptamine receptor 6 (P50406 whole entry): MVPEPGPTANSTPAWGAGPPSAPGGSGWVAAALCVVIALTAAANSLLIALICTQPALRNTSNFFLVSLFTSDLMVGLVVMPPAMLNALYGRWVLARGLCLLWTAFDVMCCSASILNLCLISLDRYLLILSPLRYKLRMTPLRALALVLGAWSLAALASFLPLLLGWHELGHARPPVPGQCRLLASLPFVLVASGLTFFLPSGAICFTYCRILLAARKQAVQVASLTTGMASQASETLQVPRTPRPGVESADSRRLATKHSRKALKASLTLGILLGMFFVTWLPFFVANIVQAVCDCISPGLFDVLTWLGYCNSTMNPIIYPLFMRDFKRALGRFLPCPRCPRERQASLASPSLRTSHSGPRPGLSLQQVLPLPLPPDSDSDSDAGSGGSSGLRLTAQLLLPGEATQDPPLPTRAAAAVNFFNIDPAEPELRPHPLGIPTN

Compound	IC50 [1]	IC50 [2]	IC50 [3]	Ki [3]	IC50 [4]	Ki [4]	IC50 ([5]; reticulocytes)	IC50 [6]	IC50 [7]	Ki [7]	IC50 ([5]; read-out: IC50) [µM]	Ki [1]	Ki [2]	Ki ([5]; reticulocytes)	Ki [6]	IC50 ([2]; read-out: IC50) [µM]	Ki ([2]; read-out: Ki) [µM]
CC(=O)[C@H]1[C@H](C#N)C[C@H]2[C@@H]3CC=C4C[C@@H](O)CC[C@]4(C)[C@H]3CC[C@@]21C [PREGNENOLONE CARBONITRILE]	Not Active	Not Active	Not Active	Not Active	Not Active	Not Active	Not Active	Not Active	Not Active	Not Active							
CCCN(CCC)S(=O)(=O)c1ccc(C(=O)O)cc1 [PROBENECID]	Not Active	Not Active	Not Active	Not Active	Not Active	Not Active	Not Active	Not Active	Not Active	Not Active							
CCCOc1ccc(C(=O)OCCN(CC)CC)cc1N [PROPARACAINE]	Not Active	Not Active	Not Active	Not Active	Not Active	Not Active	Not Active	Not Active	Not Active	Not Active							
CC(C)c1cccc(C(C)C)c1O [PROPOFOL]	Not Active	Not Active	Not Active	Not Active	Not Active	Not Active		Not Active	Not Active	Not Active	7.6						
C[C@@H]1O[C@@H](O[C@@H]2C=C3CC[C@@H]4[C@H](CC[C@]5(C)[C@@H](c6ccc(=O)oc6)CC[C@]45O)[C@@]3(C)CC2)[C@H](O)[C@H](O)[C@H]1O [PROSCILLARIDIN]	Not Active	Not Active	Not Active	Not Active	Not Active	Not Active	Not Active	Not Active	Not Active	Not Active							
Oc1cccc(O)c1O [PYROGALLOL]	Not Active	Not Active	Not Active	Not Active	Not Active	Not Active		Not Active	Not Active	Not Active	2.11						
AURANOFIN	Not Active	Not Active	Not Active	Not Active	Not Active	Not Active	Not Active	Not Active	Not Active	Not Active		Not Active	Not Active	Not Active	Not Active		
GADOPENTETATE DIMEGLUMINE	Not Active	Not Active	Not Active	Not Active	Not Active	Not Active	Not Active	Not Active	Not Active	Not Active		Not Active	Not Active	Not Active	Not Active		
GENTAMICIN	Not Active	Not Active	Not Active	Not Active	Not Active	Not Active	Not Active	Not Active	Not Active	Not Active		Not Active	Not Active	Not Active	Not Active		
GRAMICIDIN	Not Active		Not Active	Not Active	Not Active	Not Active	Not Active	Not Active	Not Active	Not Active		Not Active		Not Active	Not Active	2.98	1.83
NYSTATIN	Not Active	Not Active	Not Active	Not Active	Not Active	Not Active	Not Active	Not Active	Not Active	Not Active		Not Active	Not Active	Not Active	Not Active		

From ChEMBL document CHEMBL1909046, “DrugMatrix in vitro pharmacology data”
